In patent EP0973746B1, “SUBSTITUTED 3-CYANO QUINOLINES” (Wyeth Holdings Corporation, priority 1997, dated 1998) one finds IC50 data, which are given here for three molecules.

Converted amounts (≈) assume the structure as drawn. Like-named read-outs stand apart in the source and are kept apart here.

For one assay, the system named is NHEK. In words: Inhibition of cell growth by incorporation of [3H]-thymidine, NHEK. It counts as cell-based, human. As to conditions: Homo sapiens, read-out: IC50 NHEK.
Another assay concerns HTB161. In words: Inhibition of cancer cell growth as measured by cell number, HTB161. It counts as cell-based. As to conditions: Homo sapiens, read-out: IC50 HTB161.
Another assay has as its system A27805. In words: Inhibition of cancer cell growth as measured by cell number, A27805. The assay is classed as cell-based. As to conditions: Homo sapiens, read-out: IC50 A27805.
The next assay concerns A2780DDP. Kind of assay: Inhibition of cancer cell growth as measured by cell number, A2780DDP. It counts as cell-based. As to conditions: Homo sapiens, read-out: IC50 A2780DDP.
The subject of another assay is MIP. In words: Inhibition of cancer cell growth as measured by cell number, MIP. It counts as cell-based. As to conditions: Homo sapiens, read-out: IC50 MIP.
The subject of another assay is SW620. Kind of assay: Inhibition of cancer cell growth as measured by cell number, SW620.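 Further: SW620 was included as a cell line with little or no EGFR or HER2/neu expression, in contrast to receptor-overexpressing lines.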 It counts as cell-based, human. As to conditions: Homo sapiens, SW-620, 48 h, Table 4.
The subject of the next assay is COLO205. In words: Inhibition of cancer cell growth as measured by cell number, COLO205. The assay is classed as cell-based. As to conditions: Homo sapiens, COLO 205, 48 h, read-out: IC50 COLO205.
In the next assay the test system is CX1. Kind of assay: Inhibition of cancer cell growth as measured by cell number, CX1. It counts as cell-based. As to conditions: Homo sapiens, read-out: IC50 CX1.
The subject of a further assay is CACO2. Kind of assay: Inhibition of cancer cell growth as measured by cell number, CACO2. The assay is classed as cell-based. As to conditions: Homo sapiens, read-out: IC50 CACO2.
The next assay deals with HCT15. In words: Inhibition of cancer cell growth as measured by cell number, HCT15. The assay is classed as cell-based. As to conditions: Homo sapiens, read-out: IC50 HCT15.
In another assay the test system is LS174T. Kind of assay: Inhibition of cancer cell growth as measured by cell number, LS174T. The assay is classed as cell-based. As to conditions: Homo sapiens.
The test system of a further assay is SW948. In words: Inhibition of cancer cell growth as measured by cell number, SW948. It counts as cell-based. As to conditions: Homo sapiens, read-out: IC50 SW948.
For the next assay, the system named is CCL228. Kind of assay: Inhibition of cancer cell growth as measured by cell number, CCL228. It counts as cell-based. As to conditions: Homo sapiens, read-out: IC50 CCL228.
The subject of a further assay is MCF7. In words: Inhibition of cancer cell growth as measured by cell number, MCF7.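 Further: MCF7 was included as a line with little or no EGFR or HER2/neu expression, in contrast to the receptor-overexpressing lines of the panel.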 The assay is classed as cell-based, human. As to conditions: Homo sapiens, MCF7, 48 h, read-out: IC50 MCF7, cell number, Sulforhodamine B, 48 hours exposure; Table 5.
The next assay deals with B7474. In words: Inhibition of cancer cell growth as measured by cell number, B7474. It counts as cell-based. As to conditions: Homo sapiens, read-out: IC50 B7474.
The test system of another assay is T47D. In words: Inhibition of cancer cell growth as measured by cell number, T47D. The assay is classed as cell-based. As to conditions: Homo sapiens.
Another assay has as its system LX1. Kind of assay: Inhibition of cancer cell growth as measured by cell number, LX1. As to conditions: Homo sapiens, read-out: IC50 LX1. The assay is classed as cell-based.
A further assay concerns A549. In words: Inhibition of cancer cell growth as measured by cell number, A549. It counts as cell-based. As to conditions: Homo sapiens, read-out: IC50 A549.
The test system of another assay is LOX. In words: Inhibition of cancer cell growth as measured by cell number, LOX.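 Further: LOX cells served as a line with low or absent EGFR and HER2/neu expression, in contrast to receptor-overexpressing lines.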 It counts as cell-based, human. As to conditions: Homo sapiens, LOX, 48 h, Table 6.
Assay [1] deals with A431. Kind of assay: Inhibition of cancer cell growth as measured by cell number, A431.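 Further: human A431 line, picked because it overexpresses epidermal growth factor receptor (EGFR).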 It counts as cell-based, human. As to conditions: Homo sapiens, A-431, 48 h, Table 6.
From the text: (§1) The cell lines were chosen since they overexpressed epidermal growth factor receptor (EGFR) (i.e. A431) or HER2/neu (SKBR3), or had little to no expression of the these receptors (SW620, LOX, MCF7).
The subject of a further assay is NEC. Kind of assay: Inhibition of cancer cell growth as measured by cell number, NEC. The assay is classed as cell-based. As to conditions: Homo sapiens, 48 h, read-out: IC50 NEC.
In another assay the test system is DU145. Kind of assay: Inhibition of cancer cell growth as measured by cell number, DU145. As to conditions: Homo sapiens, read-out: IC50 DU145. It counts as cell-based.
For a further assay, the system named is PC3. In words: Inhibition of cancer cell growth as measured by cell number, PC3. The assay is classed as cell-based. As to conditions: Homo sapiens, read-out: IC50 PC3.
The next assay relates to LNCAP. In words: Inhibition of cancer cell growth as measured by cell number, LNCAP. It counts as cell-based. As to conditions: Homo sapiens, 48 h, read-out: IC50 LNCAP.
For the next assay, the system named is HL60. In words: Inhibition of cancer cell growth as measured by cell number, HL60. The assay is classed as cell-based. As to conditions: Homo sapiens, read-out: IC50 HL60.
A further assay deals with CCRF-CFM. Kind of assay: Inhibition of cancer cell growth as measured by cell number, CCRF-CFM. It counts as cell-based. As to conditions: Homo sapiens, read-out: IC50 CCRF-CFM.
The test system of another assay is SKBR3. Kind of assay: Inhibition of cancer cell growth as measured by cell number, SKBR3.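 Further: SK-BR-3 cells were selected as a line overexpressing HER2/neu.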 The assay is classed as cell-based, human. As to conditions: Homo sapiens, SK-BR-3, 48 h, read-out: IC50 SKBR3, cell number, Sulforhodamine B, 48 hours exposure; Table 7.
The target of assay [2] is recombinant human MEK 1 (MAPKK) and recombinant human ERK2 (MAPK). In words: Mitogen Activated Protein Kinase (MAPK) assay, two component coupled MEK 1 / ERK2.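 Further: MEK 1-activated ERK2 phosphorylates MBP or Myc peptide with 33P-ATP, filter capture and scintillation counting, inhibitor preincubated with ERK2 30 min at 0 °C, inhibition relative to uninhibited control.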 The assay is classed as biochemical. As to conditions: separate entries for the same compound = evaluated more than one time.
Assay [3] concerns the target epidermal growth factor receptor kinase (Homo sapiens, UniProt P00533). In words: biochemical.
Method: The enzyme was obtained as a membrane extract of A431 cells (American Type Culture Collection, Rockville, MD). A431 cells were grown in T175 flasks to 80% confluency. The cells were washed twice with phosphate buffered saline (PBS) without Ca^2+. Flasks were rotated for 1.5 hours in 20 ml PBS with 1.0 mM ethylenediaminetetraacetic acid (EDTA) at room temperature and centrifuged at 600g for 10 minutes. The cells were solubilized in 1 ml per 5 x 10^6 cells of cold lysis buffer {10mM 4-(2-hydroxyethyl)-1-piperazineethane-sulfonic acid (HEPES), pH 7.6, 10 mM NaCl, 2mM EDTA, 1mM phenylmethyl-sulfonyl-fluoride (PMSF), 10 mg/ml aprotinin, 10 mg/ml leupeptin, 0.1 mM sodium orthovanadate} in a Dounce homogenizer with 10 strokes on ice. The lysate was centrifuged at 600g for 10 minutes first to clear cell debris and the supernatant further centrifuged at 100,000 g for 30 min at 4°C. The membrane pellet was suspended in 1.5 ml HNG buffer (50 mM HEPES, pH 7.6, 125 mM NaCl, 10% glycerol). The membrane extract was divided into aliquots, immediately frozen in liquid nitrogen and stored at -70°C.
Compounds to be evaluated were made into 10 mg/ml stock solutions in 100% dimethylsulfoxide (DMSO). Prior to experiment, stock solutions were diluted to 500 mM with buffer (30 mM Hepes pH 7.4) and then serially diluted to the desired concentration.
An aliquot of the A431 membrane extract (10 mg/ml) was diluted in 30 mM HEPES (pH 7.4) to give a protein concentration of 50 ug/ml. […] To this was added the ^33p-ATP (10 mCi/ml) diluted 1:10 in assay buffer along with the substrate peptide at a concentration of 0.5 mM (control reactions get no test compound) and the reaction was allowed to proceed for 30 min at 30°C. The reaction was stopped with 10% TCA and left on ice for at least 10 min after which tubes were microcentrifuged at full speed for 15 min. The a portion of the supernatants were spotted on P81 phosphocellulose discs and washed twice in 1% acetic acid then water for 5 min each followed by scintillation counting. […] The % inhibition of the test compound was determined for at least three different concentrations and the IC50 value was evaluated from the dose response curve. […] CPM(control) is in units of counts per minute and was a number expressing the amount of radiolabeled ATP (g-^33P) incorporated into the RR-SRC peptide substrate by the enzyme after 30 minutes at 30°C in the absence of test compound as measured by liquid scintillation counting. The CPM values were corrected for the background counts produced by ATP in the absence of the enzymatic reaction. The IC50 values reported in TABLE 1 are averages of the number of tests conducted.
Assay [4] deals with A431. In words: Inhibition of cell growth by incorporation of [3H]-thymidine, A431. The assay is classed as cell-based, human. As to conditions: Homo sapiens, A-431; [3H]-thymidine incorporation; A431; read-out: IC50 A431. For orientation: Dividing cells build labelled thymidine or BrdU into new DNA.
Method: (§2) Representative compounds of this invention were evaluated for their ability to inhibit the growth of the cell lines described below in vitro. The inhibition is quantitated by measuring the decrease in the incorporation of radio-labeled thymidine when the cells are grown in the presence of the inhibitor. […] Cells were routinely grown in a humidified incubator in 5% CO2 in air.
(§3) Cells were seeded at 10,000 cells/well in 96 well plates in complete media and allowed to grow to log phase. At this stage the complete media was replaced with media containing 0.5% FBS (for cells growing in 10% FBS) or media lacking epidermal growth factor (EGF) (for cells growing in serum free media). […] Media with test compound was then removed and complete media was added back. The cells were allowed to grow for 18 hours. This is followed by incubation in [^3H]thymidine (1mCi/ml in serum/EGF media) for 4 hours. Cells were lysed in 0.5 M NaOH for at least 30 min at 37°C and radioactivity analyzed.
(§4) The % inhibition of the compound evaluated was determined for at least three different concentrations and the IC50 value evaluated from the dose response curve. […] CPM(control) is in units of counts per minute and is a number expressing the amount of [^3H]thymidine incorporated onto the DNA when cells are grown in the absence of test compound as measured by liquid scintillation counting.
The mark [5] stands for this setting: cell number, Sulforhodamine B, 48 hours exposure, Table 4.

Sequence of epidermal growth factor receptor kinase (P00533 25-1210): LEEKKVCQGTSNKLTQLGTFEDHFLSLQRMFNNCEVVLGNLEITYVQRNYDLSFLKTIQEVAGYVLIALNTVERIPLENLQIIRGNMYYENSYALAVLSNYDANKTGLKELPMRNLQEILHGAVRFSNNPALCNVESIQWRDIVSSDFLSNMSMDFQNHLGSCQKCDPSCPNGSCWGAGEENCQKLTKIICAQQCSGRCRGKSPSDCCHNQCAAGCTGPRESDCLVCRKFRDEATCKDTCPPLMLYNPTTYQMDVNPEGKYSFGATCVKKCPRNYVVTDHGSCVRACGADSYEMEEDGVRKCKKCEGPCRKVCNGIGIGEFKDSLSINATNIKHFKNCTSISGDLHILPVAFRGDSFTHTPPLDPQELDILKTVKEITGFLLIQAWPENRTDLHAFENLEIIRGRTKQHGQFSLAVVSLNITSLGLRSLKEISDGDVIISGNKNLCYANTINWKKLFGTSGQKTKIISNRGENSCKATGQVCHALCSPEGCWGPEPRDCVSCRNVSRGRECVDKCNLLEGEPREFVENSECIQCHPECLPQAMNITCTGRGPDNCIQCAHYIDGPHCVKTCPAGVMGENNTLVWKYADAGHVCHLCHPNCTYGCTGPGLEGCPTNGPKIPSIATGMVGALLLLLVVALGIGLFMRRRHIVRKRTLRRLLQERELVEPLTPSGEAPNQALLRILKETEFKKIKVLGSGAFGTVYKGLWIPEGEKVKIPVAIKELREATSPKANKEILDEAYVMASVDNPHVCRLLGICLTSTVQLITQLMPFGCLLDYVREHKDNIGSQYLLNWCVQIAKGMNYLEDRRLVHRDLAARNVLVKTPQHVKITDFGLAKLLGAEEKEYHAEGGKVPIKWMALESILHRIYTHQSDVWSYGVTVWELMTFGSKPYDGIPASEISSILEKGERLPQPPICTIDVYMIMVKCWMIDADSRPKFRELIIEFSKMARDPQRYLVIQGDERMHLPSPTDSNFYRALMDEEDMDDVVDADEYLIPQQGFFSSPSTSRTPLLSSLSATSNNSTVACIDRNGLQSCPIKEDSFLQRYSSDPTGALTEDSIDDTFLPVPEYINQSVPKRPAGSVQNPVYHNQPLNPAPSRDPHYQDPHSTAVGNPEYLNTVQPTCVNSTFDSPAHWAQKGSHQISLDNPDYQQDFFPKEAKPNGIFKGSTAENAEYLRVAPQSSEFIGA
From the text for LOX: as §1
From the text for MCF7: as §1
Method for NHEK: as §2, §3, §4
From the text for SKBR3: as §1
From the text for SW620: as §1

As usually defined, the IC50 is the midpoint of a concentration-inhibition curve. Consider `CC#CC(=O)Nc1ccc2ncc(C#N)c(Nc3cccc(Br)c3)c2c1` [Example 15, N-[4-[(3-Bromophenyl)amino]-3-cyano-6-quinolinyl]-2-butynamide], for which the IC50 came to 4000 nM in the assay with NHEK; 33 µg/mL (≈ 81.4 µM) in the assay with HTB161 (48 h); 33 µg/mL (≈ 81.4 µM) in the assay on A27805 (48 h); 33 µg/mL (≈ 81.4 µM) with A2780DDP (48 h); 33 µg/mL (≈ 81.4 µM) in the assay on MIP (48 h); 33 µg/mL (≈ 81.4 µM) in the assay on SW620 (read-out: IC50 SW620, cell number, Sulforhodamine B, 48 hours exposure). For the same molecule, the IC50 is 33 µg/mL (≈ 81.4 µM) in the assay on COLO205; 33 µg/mL (≈ 81.4 µM) in the assay with CX1 (CX-1, 48 h); 2.41 µg/mL (≈ 5.94 µM) with CACO2 (Caco-2, 48 h); above 33 µg/mL with HCT15 (HCT-15, 48 h); above 33 µg/mL with LS174T (48 h, read-out: IC50 LS174T); above 33 µg/mL with SW948 (SW948, 48 h). The IC50 is above 33 µg/mL in the assay with CCL228 (48 h); above 33 µg/mL in the assay on MCF7; above 33 µg/mL in the assay with B7474 (48 h); above 33 µg/mL with T47D (48 h, read-out: IC50 T47D); above 33 µg/mL in the assay with LX1 (LX-1, 48 h); above 33 µg/mL in the assay on A549 (A549, 48 h). Further, the IC50 in the assay on LOX (read-out: IC50 LOX, cell number, Sulforhodamine B, 48 hours exposure) was above 33 µg/mL; in the assay with A431 [1] (read-out: IC50 A431, cell number, Sulforhodamine B, 48 hours exposure), 22 µg/mL (≈ 54.3 µM); with NEC, above 33 µg/mL; with DU145 (DU-145, 48 h) it was 18 µg/mL (≈ 44.4 µM); in the assay on PC3 (PC-3, 48 h), above 33 µg/mL; in the assay with LNCAP, above 33 µg/mL. For the same molecule, the IC50 was above 33 µg/mL in the assay on HL60 (HL-60, 48 h); above 33 µg/mL with CCRF-CFM (48 h); above 33 µg/mL with SKBR3; above 100 µM in assay [2]; 0.6 nM in assay [3].

As to `CC(=O)Nc1ccc2ncc(C#N)c(Nc3cccc(Br)c3)c2c1` [Example 16, N-[4-[(3-Bromophenyl)amino]-3-cyano-6-quinolinyl] acetamide], the IC50 was 1.8 µM in the assay on A431 [4]; 60 nM in the assay on NHEK ([3H]-thymidine incorporation); 0.667 µg/mL (≈ 1.75 µM) with HTB161 (setting [5]); 0.602 µg/mL (≈ 1.58 µM) with A27805 (setting [5]); 0.596 µg/mL (≈ 1.56 µM) in the assay on A2780DDP (setting [5]); 0.534 µg/mL (≈ 1.4 µM) with MIP (setting [5]). Also, the IC50 was above 100 µg/mL in the assay with SW620 (cell number, Sulforhodamine B, 48 hours exposure, read-out: IC50 SW620); 0.978 µg/mL (≈ 2.56 µM) in the assay on CX1 (CX-1, cell number, Sulforhodamine B, 48 hours exposure, Table 4); 0.71 µg/mL (≈ 1.86 µM) in the assay with CACO2 (Caco-2, cell number, Sulforhodamine B, 48 hours exposure, Table 5); 0.641 µg/mL (≈ 1.68 µM) in the assay on HCT15 (HCT-15, cell number, Sulforhodamine B, 48 hours exposure, Table 5); 0.434 µg/mL (≈ 1.14 µM) in the assay on LS174T (cell number, Sulforhodamine B, 48 hours exposure, Table 5, read-out: IC50 LS174T); 0.928 µg/mL (≈ 2.44 µM) in the assay with SW948 (SW948, cell number, Sulforhodamine B, 48 hours exposure, Table 5). For the same molecule, the IC50 was 4.38 µg/mL (≈ 11.5 µM) with CCL228 (cell number, Sulforhodamine B, 48 hours exposure, Table 5); 0.899 µg/mL (≈ 2.36 µM) with B7474 (cell number, Sulforhodamine B, 48 hours exposure, Table 6); 6.55 µg/mL (≈ 17.2 µM) in the assay on T47D (cell number, Sulforhodamine B, 48 hours exposure, Table 6, read-out: IC50 T47D); 0.644 µg/mL (≈ 1.69 µM) with LX1 (LX-1, cell number, Sulforhodamine B, 48 hours exposure, Table 6); 0.214 µg/mL (≈ 0.56 µM) in the assay with A549 (A549, cell number, Sulforhodamine B, 48 hours exposure, Table 6); 0.316 µg/mL (≈ 0.828 µM) in the assay with LOX (cell number, Sulforhodamine B, 48 hours exposure, read-out: IC50 LOX). Moreover, the concentration for half-maximal inhibition (IC50) came to 0.766 µg/mL (≈ 2.01 µM) with A431 [1] (cell number, Sulforhodamine B, 48 hours exposure, read-out: IC50 A431); 0.113 µg/mL (≈ 0.297 µM) in the assay with DU145 (DU-145, cell number, Sulforhodamine B, 48 hours exposure, Table 7); 3.04 µg/mL (≈ 7.97 µM) with PC3 (PC-3, cell number, Sulforhodamine B, 48 hours exposure, Table 7); 0.696 µg/mL (≈ 1.83 µM) in the assay with HL60 (HL-60, cell number, Sulforhodamine B, 48 hours exposure, Table 7); 0.729 µg/mL (≈ 1.91 µM) in the assay with CCRF-CFM (cell number, Sulforhodamine B, 48 hours exposure, Table 7); 1.5 nM in assay [3].

Consider `N#Cc1cnc2ccc([N+](=O)[O-])cc2c1Nc1ccc(Br)c(Br)c1` [Example 20, 4-[(3,4-Dibromophenyl)amino]-6-nitro-3-quinolinecarbonitrile], for which the IC50 worked out at 35 µM in the assay with A431 [4] and 650 nM in the assay on NHEK ([3H]-thymidine incorporation).
